The term EC50 denotes the concentration giving half of the maximal effect. In general, half-life refers to the time needed for the level to fall by half in the phase considered. A high value points to slow loss. In general, fraction unbound refers to the share of the substance not bound to proteins or other matrix. As usually defined, the Cmax is the highest concentration seen after dosing. By CC50 is commonly meant the concentration that lowers cell viability or growth by half.

The values below come from ChEMBL document CHEMBL4627383, “Optimization of 2-(1H-imidazo-2-yl)piperazines series of Trypanosoma brucei growth inhibitors as potential treatment for the second stage of HAT” (Bioorg Med Chem Lett, 2020).

Data set [1] relates to Trypanosoma brucei. As to the kind of experiment: Antitrypanosomal activity against Trypanosoma brucei assessed as parasite growth inhibition in presence of 10% FBS. Format: functional, organism-based.
The subject of data set [2] is Trypanosoma brucei. As to the kind of experiment: Antitrypanosomal activity against Trypanosoma brucei assessed as parasite growth inhibition in presence of 50% mouse serum. The class given is functional, organism-based.
The nature of data set [3]: Half life in human hepatocytes. The class given is ADME, cell-based, Hepatocyte.
A short description of data set [4]: Half life in mouse hepatocytes. The class given is ADME, cell-based, Hepatocyte.
Data set [5] can be described thus: Protein binding in mouse plasma assessed as unbound fraction. The class given is ADME, cell-free.
Data set [6] is described as follows: Oral bioavailability in C57BL6 mouse at 30 mg/kg. To be noted: in vivo. Format: ADME, organism-based.
A short description of data set [7]: Cmax in C57BL6 mouse at 30 mg/kg, ip. The class given is ADME, organism-based. On the set-up: dose 30 mg/kg, route intraperitoneal. Conditions: in vivo.
A short description of data set [8]: (§1) Cytotoxicity against human HeLa cells assessed as reduction in cell viability. Conditions: HeLa cells. The class given is cell-based.
Data set [9] in a line: (§2) Cytotoxicity against HUVEC assessed as reduction in cell viability. Conditions: human. Format: cell-based.
Data set [10] is described as follows: Permeability in porcine brain endothelial cells/rat astrocytes model system. Format: ADME, cell-based. To be noted: read-out: permeability.
The test system of data set [11] is Trypanosoma brucei rhodesiense. As to the kind of experiment: […] activity against Trypanosoma brucei rhodesiense assessed as reduction in parasite viability after 2 hrs by time kill assay. The class given is functional, organism-based.
In data set [12] the test system is HeLa. The description is as §1. Format: cell-based. Conditions: hela.
In data set [13] the test system is HUVEC. The description is as §2. Conditions: human. The class given is cell-based.

Active and inactive are the calls of the source.

Turning to `COc1ccc2nc(C(F)(F)F)n(CC(=O)N3CCOCC3c3ncc(-c4cc5ccccc5nc4OC)[nH]3)c2c1` (stereo unspecified), the 50% effective concentration (EC50) in data set [1] worked out at 286 nM.

As for `COc1ccc2nc(C(F)(F)F)n(CC(=O)N3C[C@H](NC4CCOC4)CC[C@H]3c3ncc(-c4cc5ccccc5nc4OC)[nH]3)c2c1` (stereo partly specified), in data set [1], the EC50 came out at 11 nM.

As for `COc1ccc2nc(C(F)(F)F)n(C(=O)N3CCN(CC4CCOC4)C[C@H]3c3ncc(-c4cc5ccccc5nc4OC)[nH]3)c2c1` (stereo partly specified), in data set [1], the EC50 stood at 9 nM.

Regarding `COc1ccc2nc(C)n(C(=O)N3CCN(CC4CCOC4)C[C@H]3c3ncc(-c4cc5ccccc5nc4OC)[nH]3)c2c1` (stereo partly specified), the EC50 in data set [1] came to 32 nM.

Turning to `COc1ccc2nc(C(F)(F)F)n(CC(=O)N3CC[C@H](NC4CCOC4)C[C@H]3c3ncc(-c4cc5ccccc5nc4OC)[nH]3)c2c1` (stereo partly specified), the EC50 came out at 232 nM in data set [2] and 7 nM in data set [1]. Also, the figures for the half-life in [3] and in data set [4] were 3.1 h and 4 h, respectively. In data set [5], the unbound share (fraction unbound) is 0.047. Besides, the bioavailability in data set [6] amounted to 103%. In [7], this compound showed a Cmax of 5 µM. Also, the CC50 in data set [8] is 7490 nM; in data set [9], 3680 nM.

With `COc1ccc2nc(C(F)(F)F)n(C(=O)N3CCN(Cc4cnccn4)C[C@H]3c3ncc(-c4cc5ccccc5nc4OC)[nH]3)c2c1`, the EC50 in data set [1] amounted to 6 nM.

Regarding `COc1nc2ccccc2cc1-c1cnc([C@@H]2CN(CC3CCOC3)CCN2C(=O)n2c(C(F)(F)F)nc3ccccc32)[nH]1` (stereo partly specified), the EC50 in data set [2] stood at 850 nM; in [1], 20 nM. Besides, the Papp in [10] was 8.6 ×10⁻⁶ cm/s. Moreover, the half-life in data set [3] was 2.6 h; in [4], 0.8 h. Further, in data set [11], the outcome was Active. Also, in [5], the fraction unbound was 0.0204. In [6], the bioavailability was 133%. Moreover, the highest level in data set [7] (Cmax) was 6.9 µM.

Take `COc1ccc2nc(C(F)(F)F)n(CC(=O)N3CCS(=O)(=O)CC3c3ncc(-c4cc5ccccc5nc4OC)[nH]3)c2c1` (stereo unspecified): the EC50 in data set [1] is 355 nM.

With `COc1ccc2nc(C(F)(F)F)n(CC(=O)N3CC[C@H](NCC4CCOC4)C[C@H]3c3ncc(-c4cc5ccccc5nc4OC)[nH]3)c2c1` (stereo partly specified), the EC50 in data set [1] was 17 nM.

In the case of `COc1ccc2nc(C(F)(F)F)n(CC(=O)N3CCN(CC4CCOC4)CCC3c3ncc(-c4cc5ccccc5nc4OC)[nH]3)c2c1` (stereo unspecified), in data set [1], the concentration giving a half-maximal response (EC50) amounted to 51 nM.

In the case of `COc1ccc2nc(C(F)(F)F)n(CC(=O)N3CCCCC3c3ncc(-c4cc5ccccc5nc4OC)[nH]3)c2c1` (stereo unspecified), in [1], the EC50 was determined as 73 nM.

As to `COc1nc2ccccc2cc1-c1cnc([C@@H]2CN(CC3CCOC3)CCN2C(=O)n2c(C)nc3cncnc32)[nH]1` (stereo partly specified), the 50% effective concentration (EC50) in data set [1] amounted to 384 nM.

For `COc1ccc2nc(C(F)(F)F)n(C(=O)N3CCN(C4CCN(C)CC4)C[C@H]3c3ncc(-c4cc5ccccc5nc4OC)[nH]3)c2c1`, the EC50 in data set [1] came out at 180 nM.

In the case of `COc1ccc2nc(C(F)(F)F)n(CC(=O)N3CC[C@@H](N(C)C)C[C@H]3c3ncc(-c4cc5ccccc5nc4OC)[nH]3)c2c1`, the EC50 in [1] came to 659 nM.

For `COc1ccc2[nH]c(C)c(C(=O)N3CCN(CC4CCOC4)C[C@H]3c3ncc(-c4cc5ccccc5nc4OC)[nH]3)c2c1` (mixture of isomers), in data set [1], the EC50 came to 23 nM.

On to `COc1nc2ccccc2cc1-c1cnc([C@@H]2CN(CC3CCOC3)CCN2C(=O)n2c(C)nc3ccccc32)[nH]1` (stereo partly specified), for which the EC50 in data set [1] was found to be 163 nM.

For the compound `COc1ccc2nc(C(F)(F)F)n(CC(=O)N3CC[C@H](N(C)C)C[C@H]3c3ncc(-c4cc5ccccc5nc4OC)[nH]3)c2c1`, the concentration for a half-maximal effect (EC50) in data set [1] was 98 nM.

In the case of `COc1ccc2nc(C(F)(F)F)n(C(=O)N3CCN(Cc4nccs4)C[C@H]3c3ncc(-c4cc5ccccc5nc4OC)[nH]3)c2c1`, in data set [1], the EC50 is 2 nM.

On to `COc1ccc2[nH]c(C)c(CC(=O)N3CCN(CC4CCOC4)CC3c3ncc(-c4ccc5ccccc5c4)[nH]3)c2c1` (stereo unspecified), for which the Activity entry in data set [12] and in data set [13] was “Non-Toxic” throughout.
